Source: US6461997B1, “Triazole sulfones having herbicidal activity” (Monsanto Technology LLC, priority 1999, dated 2002)

Tests used:
[1] = tested on: AVEFA (wild oat); test: Pre-plant incorporated (PPI) herbicidal activity, cool season; type: in vivo, Avena fatua; settings: weed, PPI application
Description: (§1) In another set of tests, the pre-plant incorporated (PPI) activity of compounds of this invention was evaluated on the same species as for the pre-emergence tests described above. In the PPI tests the following procedure, designed to simulate PPI application, was used.
(§2) A pre-prepared topsoil mixture (described above) was placed in a pot and compacted to a depth of 1.0 to 1.25 cm from the top of the pot. Seeds of each of several monocotyledonous and dicotyledonous annual plant species were placed on top of the soil. A sufficient quantity of soil to cover the seeds and level fill the pot was weighed into an open container. A known amount of the test compound was dissolved or suspended in an organic solvent and applied by spraying to this cover soil. The cover soil was thoroughly mixed to distribute the test compound throughout the cover soil, and was then applied as a cover layer over the seeds. Untreated soil was used as a cover layer for control pots. After treatment the plants were placed in a greenhouse where they received 0.64 cm of overhead irrigation. All subsequent watering consisted of a light overhead mist and/or subirrigation as needed for germination and growth. Tables 9 and 10 below relate to warm season plant species which were placed after pre-emergence treatment in a greenhouse with a 30/21° C. day/night temperature regime. Tables 11 and 12 below relates to cool season plant species placed after pre-emergence treatment in a greenhouse or growth chamber with an 18/13° C. day/night temperature regime. Only the compounds of Examples 1, 6, 8, 11, 13 and 15-20 were included in PPI tests.
(§3) Approximately 14 days after planting and treating, the plants were observed and herbicidal efficacy recorded as percent inhibition by comparison with untreated plants.

[2] = tested on: BROTE (downy brome); test: as above; type: in vivo, Bromus tectorum; settings: weed, PPI application
Description: as §1, §2, §3

[3] = tested on: ABUTH (velvetleaf); test: Pre-plant incorporated (PPI) herbicidal activity, warm season; type: in vivo, Abutilon theophrasti; settings: PPI application
Description: as §1, §2, §3

[4] = tested on: AMARE (redroot pigweed); test: as above; type: in vivo, Amaranthus retroflexus; settings: PPI application
Description: as §1, §2, §3

[5] = tested on: PANMI (wild proso millet); test: Pre-emergence herbicidal activity, warm season; type: in vivo, Panicum miliaceum; settings: GR80 = lowest tested rate (300, 100, 30, 10 g/ha) with 80% or greater inhibition; approx. 14 days after treating; 30/21° C.
Outline: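 Activity is expressed as the rate giving 80% inhibition, with 300, 100, 30 and 10 g/ha typically tested. An asterisk marks activity short of 80% at the top rate. Warm-season grasses were held at 30/21 °C; cool-season blackgrass and wild buckwheat at 18/13 °C; scoring at about 14 days.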

[6] = tested on: PANDI (fall panicum); test: Pre-emergence herbicidal activity, warm season; type: in vivo, Panicum dichotomiflorum; settings: GR80 = lowest tested rate (300, 100, 30, 10 g/ha) with 80% or greater inhibition; approx. 14 days after treating; 30/21° C.
Outline: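 Seeds sown in sterilised fertilised topsoil received surface-applied compound in 50:50 acetone/water, typically at 300, 100, 30 and 10 g/ha, then greenhouse-grown at 30/21° C (warm-season species) or 18/13° C (cool-season species). Percent inhibition versus untreated plants was scored at about 14 days, giving GR80; an asterisk marks activity short of 80% at the top rate.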

| SMILES | Percent inhibition AVEFA ([1]; 30 g/ha) [%] | Percent inhibition AVEFA ([1]; 100 g/ha) [%] | Percent inhibition AVEFA ([1]; 300 g/ha) [%] | Percent inhibition AVEFA ([1]; 900 g/ha) [%] | Percent inhibition BROTE ([2]; 30 g/ha) [%] | Percent inhibition BROTE ([2]; 100 g/ha) [%] | Percent inhibition BROTE ([2]; 300 g/ha) [%] | Percent inhibition BROTE ([2]; 900 g/ha) [%] | Percent inhibition ABUTH ([3]; 30 g/ha) [%] | Percent inhibition ABUTH ([3]; 100 g/ha) [%] | Percent inhibition ABUTH ([3]; 300 g/ha) [%] | Percent inhibition ABUTH ([3]; 900 g/ha) [%] | Percent inhibition AMARE ([4]; 30 g/ha) [%] | Percent inhibition AMARE ([4]; 100 g/ha) [%] | Percent inhibition AMARE ([4]; 300 g/ha) [%] | Percent inhibition AMARE ([4]; 900 g/ha) [%] | Pre-emergence activity (GR80) PANMI [5] [g/ha] | Pre-emergence activity (GR80) PANDI [6] [g/ha] |
| --- | --- | --- | --- | --- | --- | --- | --- | --- | --- | --- | --- | --- | --- | --- | --- | --- | --- | --- |
| CCN(CC)C(=O)n1cnc(S(=O)(=O)C(F)(F)F)n1 [Example 2] | 0 | 10 | 20 | 50 | 0 | 40 | 50 | 100 | 0 | 0 | 20 | 75 | 100 | 95 | 100 | 100 | 30 | 30 |
| CCN(CC)C(=O)n1cnc(S(=O)(=O)C(F)(F)Cl)n1 [Example 3] | 20 | 40 | 100 | 80 | 0 | 30 | 90 | 95 | 0 | 0 | 30 | 60 | 90 | 100 | 100 | 100 | 30 | 100 |
| CCN(CC)C(=O)n1cnc(S(=O)(=O)C(F)(F)C(F)(F)Br)n1 [Example 4] | 10 | 10 | 50 | 100 | 0 | 50 | 85 | 90 | 0 | 0 | 20 | 70 | 70 | 100 | 100 | 100 | 100 | 30 |
